Type in all cases: cell-based
The test system of one test is MCF-7. Kind of test: MTT cell viability assay, MCF-7. The following applies: Homo sapiens, MTT, 72-hour incubation, read-out: IC50/μM MCF-7. As to the method: (§1) Cells were then treated with compound at various concentrations in 0.2 mL media. After the 72-hour incubation period, cells were washed in PBS (3×100 μL), and 10 μL MTT reagent was added with 100 μL fresh media. Cells were then incubated for 4 hr in a humidified chamber at 37° C. with 5% CO2. Insoluble formazan crystals were solubilized by addition of 0.1 mL detergent solution (4 hr at room temp., dark). Resulting colored solutions were then quantified at an absorbance of 570 nm.
For orientation: Formazan colour is commonly taken as a measure of viable cells.

The next test has as its system MDA-MB-231. Description: MTT cell viability assay, MDA-MB-231. The following applies: Homo sapiens. The method, then:
as §1

A further test has as its system MEF (C57BL/6). Description: MTT cell viability assay, MEF (C57BL/6). The settings on record: Mus musculus. As to the method:
as §1

Setting [1] is: MTT, 72-hour incubation, read-out: IC50/μM MEF (C57BL/6).
Where [2] appears, read: MDA-MB-231, 72 h, 72-hour incubation.
Setting [3] is: 72 h, read-out: IC50/μM MEF (C57BL/6), MTT, 72-hour incubation.

Like-named read-outs stand apart in the source and are kept apart here.

As for `CCn1c(=O)/c(=C2\Sc3cc(C)ccc3N2C)s/c1=C\c1scc[n+]1Cc1ccccc1SC(F)(F)F` [JG-373], the IC50 in the test with MCF-7 (MCF7) is 0.095 ± 0.005 µM; in the test on MDA-MB-231 (MDA-MB-231, 72-hour incubation), 0.22 ± 0.03 µM; in the test with MEF (C57BL/6) (setting [1]) it was 0.44 ± 0.03 µM.
The like results for `CCn1c(=O)/c(=C2\Sc3cc(C)ccc3N2C)s/c1=C\c1scc[n+]1Cc1ccsc1` [JG-279] were, in that order, 0.14 ± 0.03 µM, 0.15 ± 0.01 µM and 2.2 ± 0.1 µM.
`CCn1c(=O)/c(=C2\Sc3cc(Cl)ccc3N2C)s/c1=C\c1scc[n+]1Cc1ccccc1OC(C)=O` [JG-247]: the IC50 with MCF-7 (MCF7) turned out to be 1.58 ± 0.18 µM; in the test with MDA-MB-231 (MDA-MB-231, 72-hour incubation), 1.8 ± 0.3 µM; with MEF (C57BL/6) (setting [1]) it was 6.1 ± 0.3 µM.
Taken in the same sequence, the figures for `CCn1c(=O)/c(=C2\Sc3ccc(C)cc3N2C)s/c1=C\c1scc[n+]1Cc1ccccc1Br` [JG-367] were 0.12 ± 0.01 µM, 0.22 ± 0.02 µM and 0.54 ± 0.02 µM.
The like results for `CCn1c(=O)/c(=C2\Sc3cc(SC)ccc3N2C)s/c1=C\c1scc[n+]1Cc1ccccc1C` [JG-310] were, in that order, 0.23 ± 0.04 µM, 0.11 ± 0.01 µM and 2.2 ± 0.2 µM.
With `CCn1c(=O)/c(=C2\Sc3ccc(OC)cc3N2C)s/c1=C\c1scc[n+]1Cc1ccccc1OC(F)(F)F` [JG-400], the IC50 amounted to 0.16 ± 0.02 µM with MCF-7 (MCF7, 72 h); 0.16 ± 0.01 µM in the test with MDA-MB-231 (setting [2]); 2.2 ± 0.1 µM in the test on MEF (C57BL/6) (setting [3]).
On to `CCn1c(=O)/c(=C2\Sc3ccc(C)cc3N2C)s/c1=C\c1scc[n+]1Cc1c(C)cccc1C` [JG-362], for which the IC50 in the test with MCF-7 (MCF7) is 0.19 ± 0.02 µM; in the test on MDA-MB-231 (MDA-MB-231, 72-hour incubation), 0.23 ± 0.01 µM; with MEF (C57BL/6) (setting [1]), 2.3 ± 0.1 µM.
Taken in the same sequence, the figures for `CCn1c(=O)/c(=C2\Sc3cc(C)ccc3N2C)s/c1=C\c1scc[n+]1Cc1ccc(C(F)(F)F)o1` [JG-286] were 0.27 ± 0.02 µM, 0.14 ± 0.01 µM and 5 ± 0.6 µM.
The like results for `CCn1c(=O)/c(=C2\Sc3cc(C#N)ccc3N2C)s/c1=C\c1scc[n+]1Cc1ccccc1` [JG-360] were, in that order, 1.3 ± 0.1 µM, 2.3 ± 0.1 µM and 2.3 ± 0.1 µM.
The like results for `CCn1c(=O)/c(=C2\Sc3cc(Cl)ccc3N2C)s/c1=C\c1scc[n+]1Cc1ccc(Cl)cc1` [JG-256] were, in that order, 0.72 ± 0.06 µM, 1.1 ± 0.1 µM and 2.2 ± 0.1 µM.
Regarding `CCn1c(=O)/c(=C2\Sc3cc(Cl)ccc3N2C)s/c1=C\c1scc[n+]1CCc1ccccc1C` [JG-391], the IC50 stood at 0.68 ± 0.04 µM in the test with MCF-7 (MCF7); 0.26 ± 0.01 µM in the test with MDA-MB-231 (MDA-MB-231, 72-hour incubation); 2.5 ± 0.2 µM with MEF (C57BL/6) (setting [1]).
As for `CCn1c(=O)/c(=C2\Sc3cc(Cl)ccc3N2C)s/c1=C\c1scc[n+]1CCc1ccccc1OC` [JG-389], the IC50 turned out to be 0.86 ± 0.08 µM with MCF-7 (MCF7); 0.27 ± 0.01 µM in the test on MDA-MB-231 (MDA-MB-231, 72-hour incubation); 2.4 ± 0.1 µM with MEF (C57BL/6) (setting [1]).
Regarding `CCn1c(=O)/c(=C2\Sc3ccc(C)cc3N2C)s/c1=C\c1scc[n+]1Cc1ccccc1OC(F)(F)F` [JG-368], the IC50 is 0.089 ± 0.006 µM with MCF-7 (MCF7, 72 h); 0.18 ± 0.01 µM in the test with MDA-MB-231 (setting [2]); 1.4 ± 0.1 µM in the test with MEF (C57BL/6) (setting [3]).
Turning to `CCc1ccc2c(c1)S/C(=c1/s/c(=C\c3scc[n+]3Cc3ccccc3OC(F)(F)F)n(CC)c1=O)N2C` [JG-297], the IC50 in the test with MCF-7 (MCF7) was 0.08 ± 0.005 µM; with MDA-MB-231 (MDA-MB-231, 72-hour incubation), 0.097 ± 0.006 µM; in the test with MEF (C57BL/6) (setting [1]), 0.41 ± 0.01 µM.
Consider `CCc1ccc2c(c1)S/C(=c1/s/c(=C\c3scc[n+]3Cc3c(Cl)cccc3Cl)n(CC)c1=O)N2C` [JG-342], for which the IC50 in the test on MCF-7 (MCF7, 72 h) was determined as 0.093 ± 0.007 µM; in the test with MDA-MB-231 (MDA-MB-231, 72-hour incubation), 0.1 ± 0.01 µM; in the test with MEF (C57BL/6) (setting [1]), 0.3 ± 0.1 µM.
Consider `CCn1c(=O)/c(=C2\Sc3cc(OC)ccc3N2C)s/c1=C\c1scc[n+]1CCc1ccccc1Cl` [JG-379], for which the IC50 is 0.18 ± 0.01 µM with MCF-7 (MCF7); 0.2 ± 0.03 µM in the test with MDA-MB-231 (MDA-MB-231, 72-hour incubation); 0.9 ± 0.01 µM in the test with MEF (C57BL/6) (setting [1]).
`CCn1c(=O)/c(=C2\Sc3cc(C)ccc3N2C)s/c1=C\c1scc[n+]1Cc1c(C)cccc1C` [JG-372]: the IC50 worked out at 0.18 ± 0.01 µM with MCF-7 (MCF7); 0.68 ± 0.16 µM in the test with MDA-MB-231 (MDA-MB-231, 72-hour incubation); 0.67 ± 0.01 µM in the test on MEF (C57BL/6) (setting [1]).
The like results for `CCn1c(=O)/c(=C2\Sc3cc(OC)ccc3N2C)s/c1=C\c1scc[n+]1CCc1ccccc1C` [JG-398] were, in that order, 0.24 ± 0.02 µM, 0.14 ± 0.01 µM and 1.1 ± 0.1 µM.
The like results for `CCn1c(=O)/c(=C2\Sc3cc(F)ccc3N2C)s/c1=C\c1scc[n+]1Cc1c(Cl)cccc1Cl` [JG-338] were, in that order, 0.17 ± 0.02 µM, 0.14 ± 0.01 µM and 1 ± 0.03 µM.
The like results for `CCc1ccc2c(c1)S/C(=c1/s/c(=C\c3scc[n+]3C(C)c3ccccc3)n(CC)c1=O)N2C` (stereo not drawn) [JG-320] were, in that order, 0.1 ± 0.01 µM, 0.3 ± 0.05 µM and 1.3 ± 0.04 µM.
Turning to `CN1/C(=c2\s/c(=C\c3scc[n+]3Cc3ccccc3)n(C)c2=O)Sc2ccccc21` [JG-277], the IC50 with MCF-7 (MCF7) was 0.39 ± 0.03 µM; with MDA-MB-231 (MDA-MB-231, 72-hour incubation), 0.49 ± 0.05 µM; in the test with MEF (C57BL/6) (setting [1]), 4.1 ± 0.2 µM.

For the origin of these results see patent US10221171B2, “Oxathiazole thiazolium Hsp 70 inhibitors” (THE REGENTS OF THE UNIVERSITY OF CALIFORNIA, priority 2015, dated 2019).
